≈ marks a conversion by molar mass, not a printed value. Calls of active or inactive are those of the source. The calls are words filed in the database; no cut-off is given here.
Experiments:
Z-138 = experiment: Antiproliferative activity against human Z138 cells assessed as inhibition of cell growth incubated for 72 hrs by MTT assay; format: functional, cell-based; conditions: Z-138, 72 h
[1] = Antiproliferative activity against multidrug resistant human K562/4 cells expressing P-gp assessed as inhibition of cell growth incubated for 72 hrs by MTT assay; format: functional, cell-based; conditions: K562/4, 72 h
NCI-H1975 = experiment: Antiproliferative activity against human NCI-H1975 cells assessed as inhibition of cell growth incubated for 72 hrs by MTT assay; format: functional, cell-based; conditions: NCI-H1975, 72 h
K562 = experiment: Antiproliferative activity against human K562 cells assessed as inhibition of cell growth incubated for 72 hrs by MTT assay; format: functional, cell-based; conditions: K562, 72 h
[2] = Antiproliferative activity against human DND41 cells assessed as inhibition of cell growth incubated for 72 hrs by MTT assay; format: functional, cell-based; conditions: DND41, 72 h
HCT-116 = experiment: Antiproliferative activity against human HCT-116 cells assessed as inhibition of cell growth incubated for 72 hrs by MTT assay; format: functional, cell-based; conditions: HCT-116, 72 h
CAPAN-1 = experiment: Antiproliferative activity against human CAPAN-1 cells assessed as inhibition of cell growth incubated for 72 hrs by MTT assay; format: functional, cell-based; conditions: CAPAN-1, 72 h
LN-229 = experiment: Antiproliferative activity against human LN-229 cells assessed as inhibition of cell growth incubated for 72 hrs by MTT assay; format: functional, cell-based; conditions: LN-229, 72 h
HL-60 = experiment: Antiproliferative activity against human HL-60 cells assessed as inhibition of cell growth incubated for 72 hrs by MTT assay; format: functional, cell-based; conditions: HL-60, 72 h
[3] = Cytotoxicity against hFB-hTERT6 cells assessed as inhibition of cell growth incubated for 72 hrs by MTT assay; format: toxicity, cell-based; conditions: human
[4] = Drug uptake in human HCT-116 cells assessed as increase in intracellular accumulation at 2 uM measured after 24 hrs by Hoechst 33342 staining based fluorescence confocal microscopic analysis; format: ADME, cell-based; conditions: hct-116, 24 h
Calf thymus DNA [5] = experiment: Binding affinity to calf thymus DNA assessed as binding constant at 10 uM by fluorescence spectroscopy analysis; format: nucleic-acid assay; conditions: Bos taurus
[6] = Drug uptake in hFB-hTERT6 cells; format: ADME, cell-based; conditions: human
Calf thymus DNA [7] = experiment: Binding affinity to calf thymus DNA assessed as dissociation constant at 10 uM by fluorescence spectroscopy analysis; format: nucleic-acid assay, Bos taurus
[8] = Drug uptake in human HCT-116 cells assessed as increase in intracellular accumulation at 2 uM measured after 24 hrs by flow cytometry analysis; format: ADME, cell-based; conditions: hct-116, 24 h
DNA = experiment: Binding affinity to pBR322 plasmid DNA (unknown origin) assessed as DNA intercalation by measuring reduction in electrophoretic shift at 5 to 20 uM incubated for 30 mins by EtBr staining based agarose gel electrophoresis; format: nucleic-acid assay; conditions: dose 5-20 µM
[9] = Solubility of compound in deionized water at pH 6; format: physicochemical
[10] = Octanol/water partition coefficient, logP of compound at pH 7.4 by HPLC analysis; format: physicochemical

| Compound | IC50 (Z-138) [nM] | IC50 [1] [nM] | IC50 (NCI-H1975) [nM] | IC50 (K562) [nM] | IC50 [2] [nM] | IC50 (HCT-116) [nM] | IC50 (CAPAN-1) [nM] | IC50 (LN-229) [nM] | IC50 (HL-60) [nM] | IC50 at 72 h [3] [nM] | Drug uptake [4] | Kb (Calf thymus DNA [5]) | Drug uptake [6] | Kd (Calf thymus DNA [7]) [nM] | Drug uptake [8] | Activity (DNA) | solubility [9] [mg/mL] | logD [10] |
| --- | --- | --- | --- | --- | --- | --- | --- | --- | --- | --- | --- | --- | --- | --- | --- | --- | --- | --- |
| O=C1c2ccccc2C(=O)c2c(O)c3c(c(O)c21)CC(C(=O)NC1CNC1)C3 | 2800 | 33000 | 2700 | 2700 | 3100 | 1400 | 1500 | 2900 | 2700 | 4300 |  |  |  |  |  |  |  |  |
| O=C1c2ccccc2C(=O)c2c(O)c3c(c(O)c21)CC(C(=O)N1CCC(N2CCCCC2)CC1)C3 | 2500 | 4600 | 3100 | 2000 | 1700 | 3100 | 1500 | 2800 | 2400 | 4500 |  |  |  |  |  |  |  |  |
| O=C1c2ccccc2C(=O)c2c(O)c3c(c(O)c21)CC(C(=O)N[C@@H]1CCNC1)C3 | 2300 | 9200 | 10100 | 2100 | 2200 | 1600 | 1600 | 5800 | 2300 | 4200 |  |  |  |  |  |  |  |  |
| NCCCNC(=O)C1Cc2c(O)c3c(c(O)c2C1)C(=O)c1ccccc1C3=O | > 50000 | 7800 | 3300 | 3700 | 43000 | 2100 | 3600 | 3900 | 45000 | 6500 |  |  |  |  |  |  |  |  |
| O=C1c2ccccc2C(=O)c2c(O)c3c(c(O)c21)CC(C(=O)NC1CN2CCC1CC2)C3 (stereo unspecified) | 2700 | 4100 | 6200 | 1600 | 2200 | 1500 | 1800 | 1900 | 2100 | 2400 |  |  |  |  |  |  |  |  |
| O=C1c2ccccc2C(=O)c2c(O)c3c(c(O)c21)CC(C(=O)NCCOCCO)C3 | > 50000 | > 50000 | > 50000 | > 50000 | > 50000 | > 50000 | > 50000 | > 50000 | > 50000 | > 50000 | Not Active | 0.011 10^6/M | Not Active | 90000 | Not Active | inactive |  |  |
| O=C1c2ccccc2C(=O)c2c(O)c3c(c(O)c21)CC(C(=O)N1CCNCC1)C3 | 2100 | 2200 | 8800 | 1300 | 1700 | 1300 | 1400 | 5000 | 1200 | 4000 |  |  |  |  |  |  | 46 (≈ 117 mM) |  |
| CN1CCN(C(=O)C2Cc3c(O)c4c(c(O)c3C2)C(=O)c2ccccc2C4=O)CC1 | 36200 | > 50000 | 18100 | > 50000 | 10100 | 24300 | 35200 | 35000 | > 50000 | > 50000 |  |  |  |  |  |  | ~1.7 (≈ 4.18 mM) |  |
| O=C1c2ccccc2C(=O)c2c(O)c3c(c(O)c21)CC(C(=O)NC1CCCNC1)C3 (stereo unspecified) | 2200 | 3200 | 4600 | 1700 | 1500 | 3200 | 1000 | 3500 | 1900 | 4200 |  |  |  |  |  |  |  |  |
| N[C@@H]1CN(C(=O)C2Cc3c(O)c4c(c(O)c3C2)C(=O)c2ccccc2C4=O)C[C@H]1N | 2600 | 35000 | 3800 | 2800 | 2300 | 2000 | 1700 | 3900 | 2800 | 23000 |  | 0.31 10^6/M |  | 3200 |  |  |  |  |
| O=C1c2ccccc2C(=O)c2c(O)c3c(c(O)c21)CC(C(=O)N[C@H]1CCNC1)C3 | 1800 | 4800 | 2300 | 2400 | 1900 | 1500 | 1500 | 5100 | 2300 | 4200 |  |  |  |  |  |  |  |  |
| NCCN(CCN)C(=O)C1Cc2c(O)c3c(c(O)c2C1)C(=O)c1ccccc1C3=O | 2500 | 18000 | 1800 | 1900 | 2400 | 1300 | 1600 | 1600 | 2300 | 2300 |  |  |  |  |  |  |  |  |
| NC1CCCN(C(=O)C2Cc3c(O)c4c(c(O)c3C2)C(=O)c2ccccc2C4=O)C1 (stereo unspecified) | 2200 | 1200 | 4600 | 1700 | 1500 | 3200 | 1000 | 3500 | 1900 | 4000 |  |  |  |  |  |  |  |  |
| N[C@H]1CC[C@H](NC(=O)C2Cc3c(O)c4c(c(O)c3C2)C(=O)c2ccccc2C4=O)CC1 | 2600 | 8800 | 6500 | 2000 | 2500 | 2100 | 1900 | 4500 | 2700 | 4500 |  |  |  |  |  |  |  |  |
| N[C@@H]1CCN(C(=O)C2Cc3c(O)c4c(c(O)c3C2)C(=O)c2ccccc2C4=O)C1 | 2500 | 2100 | 1200 | 2000 | 2300 | 1100 | 1100 | 2000 | 2000 | 4700 |  |  |  |  |  |  |  |  |
| NCCNC(=O)C1Cc2c(O)c3c(c(O)c2C1)C(=O)c1ccccc1C3=O | 2100 | 6000 | 1800 | 2100 | 3100 | 1400 | 1600 | 2600 | 3700 | 4000 |  |  |  |  |  |  |  |  |
| CC(=O)[C@]1(O)Cc2c(O)c3c(c(O)c2[C@@H](O[C@H]2C[C@H](N)[C@H](O)[C@H](C)O2)C1)C(=O)c1c(O)cccc1C3=O [CARUBICIN] |  |  |  |  |  |  |  |  |  |  |  |  |  |  |  |  |  | 0.95 |
| O=C1c2ccccc2C(=O)c2c(O)c3c(c(O)c21)CC(C(=O)NC1CCNCC1)C3 | 3100 | 4500 | 1800 | 1600 | 2000 | 1000 | 1700 | 1400 | 1500 | 4500 |  |  |  |  |  |  |  |  |

— ChEMBL document CHEMBL5528031, “Synthesis and antitumor activity of cyclopentane-fused anthraquinone derivatives” (Eur J Med Chem, 2024)
